Results from PubChem BioAssay (NCI).
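Five concentrations, 48 hours, 96-well plates. GI50 is the concentration that inhibits growth by half. TGI marks complete inhibition of growth.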

Tests used:
Test in all cases: DTP human tumour cell line panel, 48 h
[1] = tested on: ACHN renal
[2] = tested on: OVCAR-8 ovarian
[3] = tested on: KM12 colon
[4] = tested on: EKVX NSCLC
[5] = tested on: IGROV1 ovarian
[6] = tested on: CCRF-CEM leukemia
[7] = tested on: SW-620 colon
[8] = tested on: HCC-2998 colon
[9] = tested on: MCF7 breast
[10] = tested on: UO-31 renal

SMILES | GI50 [1] | TGI [1] | GI50 [2] | TGI [2] | GI50 [3] | TGI [3] | GI50 [4] | TGI [4] | GI50 [5] | TGI [5] | GI50 [6] | TGI [6] | GI50 [7] | TGI [7] | GI50 [8] | TGI [8] | GI50 [9] | TGI [9] | GI50 [10] | TGI [10]
CC(=O)N1N=C2/C(=C/c3ccccc3)CC(C)CC2C1c1ccccc1 (stereo not given) | 13 µM | 26.8 µM | 16.1 µM | 50.6 µM | 12.4 µM | 33.9 µM | 11.9 µM | 27.3 µM | 12.1 µM | 41.9 µM | 15.5 µM | 53.9 µM | 15.2 µM | 33.2 µM | 8.86 µM | 21.2 µM | 10.1 µM | 22.6 µM | 12.8 µM | 31.1 µM
O=[N+]([O-])c1ccc(Br)c([N+](=O)[O-])c1 | 1.8 µM | 3.48 µM | 2.49 µM | 6.05 µM | 1.8 µM | 3.23 µM | 1.84 µM | 4 µM | 1.92 µM | 3.94 µM | 1.79 µM | 6.83 µM | 1.83 µM | 4.13 µM | 4.73 µM | 16.7 µM | 1.9 µM | 4.75 µM | 0.266 µM | 0.779 µM
Cc1cc(N2CCCCC2)nc(N(CCCNc2ccnc3cc(Cl)ccc23)Cc2ccco2)n1 | 3.3 µM | 12 µM | 2.24 µM | 5.18 µM | 2.82 µM | 11.1 µM | 2.42 µM | 11.7 µM | 1.82 µM | 6.57 µM | 2.01 µM | 12.6 µM | 1.61 µM | 4.37 µM | 1.97 µM | 4.39 µM | 1.81 µM | 5.13 µM | 1.17 µM | 2.59 µM
CCOc1cccc(/C=N/NC(=O)c2ccc(Nc3ccnc(C(F)(F)F)c3)cc2)c1O | 0.728 µM | > 79.1 µM | 0.599 µM | > 72.5 µM | 1.62 µM | > 58.4 µM | 1.21 µM | > 81.8 µM | 2.32 µM | > 23.9 µM | 0.332 µM | 8.36 µM | 2.01 µM | > 100 µM | 1.49 µM | > 20.4 µM | 0.7 µM | > 59 µM | 0.781 µM | > 25.7 µM
CCN(CC)CCCC(C)Nc1cnc(C(=O)Nc2ccc(Cl)c3cccnc23)cn1 (stereo not given) | 1.73 µM | 3.31 µM | 3.17 µM | 10 µM | 3.79 µM | 13.3 µM | 3.98 µM | 17.2 µM | 1.62 µM | 4.11 µM | 0.484 µM | 2.27 µM | 2.09 µM | 4.74 µM | 1.5 µM | 3.08 µM | 1.68 µM | 4.39 µM | 1.48 µM | 2.9 µM
O=C1CC(c2ccc(N3CCOCC3)cc2)(c2ccsc2)NC(=O)C1Sc1ccccc1Cl (stereo not given) | 47.4 µM | > 100 µM | 7.68 µM | > 100 µM | 43.7 µM | > 100 µM | > 100 µM | > 100 µM | 22.4 µM | > 100 µM | 6 µM | > 100 µM | 21.6 µM | > 100 µM | > 100 µM | > 100 µM | 57.2 µM | > 100 µM | 34.4 µM | > 100 µM
CC(C)=CCC[C@H](C)[C@@H]1CC[C@]2(C)C3CC[C@]4(OC4(C)C)C(CCCO)[C@]3(C)CC[C@@]12C (stereo not given in full) | 13.7 µM | 32.4 µM | 37.7 µM | > 100 µM | 22.5 µM | 59.5 µM | 20.7 µM | 50.7 µM | 81.7 µM | > 100 µM | 25.2 µM | 65.9 µM | 28 µM | 64.8 µM | 7.75 µM | 22.5 µM | 18.1 µM | 43.6 µM | 33.5 µM | > 100 µM
CN(C)c1ccc(N2Cc3ccccc3OC3=C2C(=O)c2c(O)ccc(O)c2C3=O)cn1 | 0.158 µM | 0.698 µM | 0.268 µM | 1.26 µM | 1.03 µM | 3.08 µM | 0.242 µM | 1.21 µM | 0.28 µM | 1 µM | 0.102 µM | 0.815 µM | 0.178 µM | 0.586 µM | 1.18 µM | 2.58 µM | 0.15 µM | 0.456 µM | 0.135 µM | 0.351 µM
